Reference: EP1321493A1, “Method for enhancing the solubility of a colorant” (DSM N.V., priority 2001, dated 2003)

Tests used:
[1] = according to The Sigma-Aldrich Handbook of Stains, Dyes and Indicators; cited from earlier work
[2] = Solubility / concentration of colorant in toluene; format: physicochemical; conditions: pure colorant

| solubility in toluene (in words) [2] | Structure (SMILES) | maximum solubility of the pure dye in water [1] |
| --- | --- | --- |
| – | CC1(C)Nc2cccc3c(N=Nc4ccc(N=Nc5ccccc5)c5ccccc45)ccc(c23)N1 [Solvent Black 3] | 0.01% |
| – | CCN(CC)c1ccc(C(=C2C=CC(=[N+](CC)CC)C=C2)c2ccc(S(=O)(=O)[O-])cc2S(=O)(=O)[O-])cc1.[Na+] [Acid Blue 1] | 3,0% |
| – | O=C1/C(=C2\Nc3ccc(S(=O)(=O)[O-])cc3C2=O)Nc2ccc(S(=O)(=O)[O-])cc21.[Na+].[Na+] [Acid Blue 74] | 0.3% |
| insoluble | Cl.Cl.Nc1ccc(N=Nc2cccc(N=Nc3ccc(N)cc3N)c2)c(N)c1 [Basic Brown 1] | – |
